Legend:
KOR = settings: cited from earlier work
mu opioid receptor (MOR) = mu opioid receptor (MOR) (Mus musculus, UniProt P42866); experiment: MOR competitive radioligand binding; parameters: species or system mice
[1] = molecular target: T1, kappa opioid receptor (KOR) (Mus musculus, UniProt P33534); experiment: biochemical; assay type: binding, mice
[2] = molecular target: T2, delta opioid receptor (DOR) (Mus musculus, UniProt P32300); experiment: DOR competitive radioligand binding; parameters: species or system mice
morphine dependent mice = experiment: Opioid withdrawal assay in morphine-pelleted mice; assay type: in vivo; settings: for Precipitated withdrawal symptoms, overall comparison: morphine-pelleted mice, s.c.
[3] = molecular target: T1, kappa opioid receptor (KOR); experiment: KOR [35S]-GTPγS binding assay
[4] = molecular target: T2, delta opioid receptor (DOR); experiment: DOR [35S]-GTPγS binding assay
antinociception = experiment: Warm-water tail flick assay, acute agonist effect; settings: up to 30 mg/kg dose; s.c.
morphine antinociception = experiment: Warm-water tail flick assay, antagonism of morphine antinociception; assay type: in vivo; settings: antagonizing morphine (10 mg/kg) antinociception; s.c.; six mice
[5] = increasing dose up to 30 mg/kg s.c.

T2 sequence (P32300 whole entry): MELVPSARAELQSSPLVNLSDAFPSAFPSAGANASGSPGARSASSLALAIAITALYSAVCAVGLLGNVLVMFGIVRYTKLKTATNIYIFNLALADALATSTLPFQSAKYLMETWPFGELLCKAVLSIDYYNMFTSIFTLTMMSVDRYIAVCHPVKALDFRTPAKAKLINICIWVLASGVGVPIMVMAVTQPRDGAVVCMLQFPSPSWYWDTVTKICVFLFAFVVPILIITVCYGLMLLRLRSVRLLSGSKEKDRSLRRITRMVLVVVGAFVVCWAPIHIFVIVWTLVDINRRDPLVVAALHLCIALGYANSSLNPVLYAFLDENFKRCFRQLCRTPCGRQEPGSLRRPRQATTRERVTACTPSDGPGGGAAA
T1 sequence (P33534 whole entry): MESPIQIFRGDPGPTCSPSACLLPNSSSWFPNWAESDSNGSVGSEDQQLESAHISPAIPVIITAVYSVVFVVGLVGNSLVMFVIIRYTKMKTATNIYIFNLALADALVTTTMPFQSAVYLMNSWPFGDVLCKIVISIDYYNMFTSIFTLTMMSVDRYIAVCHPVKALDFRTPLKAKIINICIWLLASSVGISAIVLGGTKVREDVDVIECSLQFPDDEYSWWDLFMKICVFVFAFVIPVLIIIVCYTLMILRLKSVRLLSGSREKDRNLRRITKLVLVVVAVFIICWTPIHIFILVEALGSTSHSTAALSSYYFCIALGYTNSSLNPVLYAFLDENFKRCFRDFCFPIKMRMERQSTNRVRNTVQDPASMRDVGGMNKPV
mu opioid receptor (MOR), sequence (P42866 whole entry): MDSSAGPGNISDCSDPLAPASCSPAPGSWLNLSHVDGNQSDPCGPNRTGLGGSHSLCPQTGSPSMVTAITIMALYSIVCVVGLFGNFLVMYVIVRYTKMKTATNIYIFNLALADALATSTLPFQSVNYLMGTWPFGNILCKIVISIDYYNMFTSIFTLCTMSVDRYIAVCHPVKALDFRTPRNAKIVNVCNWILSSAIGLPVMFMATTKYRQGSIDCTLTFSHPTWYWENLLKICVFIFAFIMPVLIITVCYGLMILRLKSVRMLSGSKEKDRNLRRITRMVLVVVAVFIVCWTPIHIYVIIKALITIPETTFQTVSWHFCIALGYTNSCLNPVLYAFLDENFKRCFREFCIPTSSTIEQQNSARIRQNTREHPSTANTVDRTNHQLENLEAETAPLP

SMILES	Emax (KOR partial agonist) (KOR) [%]	Ki (mu opioid receptor (MOR)) [nM]	Ki [1] [nM]	Ki [2] [nM]	Wet dog shakes at 3 mg/kg (morphine dependent mice; 3 mg/kg s.c.)	Wet dog shakes at 10 mg/kg (morphine dependent mice; 10 mg/kg s.c., same level at 30 mg/kg)	Wet dog shakes at high doses (morphine dependent mice; 10 and 30 mg/kg s.c., compared with 1 mg/kg naloxone)	Escape jumps, effect of dose (morphine dependent mice; [5])	Precipitated withdrawal symptoms, overall comparison (morphine dependent mice)	EC50 [3] [nM]	EC50 [4] [nM]	Agonist effect in tail flick assay (antinociception)	AD50 values (mg/kg (95% CL)) (morphine antinociception)	Wet dog shakes at 30 mg/kg (morphine dependent mice; 30 mg/kg s.c., compared with 1 mg/kg naloxone and naltrexone)	Wet dog shakes, effect of dose (morphine dependent mice; [5])
Oc1cccc2c1O[C@H]1CCC[C@H]3CN(CC4CC4)CC[C@@]231 [LTC-274, (-)-3-cyclopropylmethyl-2,3,4,4α,5,6,7,7α-octahydro-1H-benzofuro[3,2-e]isoquinolin-9-ol]	23	–	–	–	–	–	–	–	–	–	–	–	–	–	–
O=C(N[C@@]12CCC(=O)[C@@H]3Oc4c(O)ccc5c4[C@@]31CCN(CC1CC1)[C@@H]2C5)c1ccccn1 [Compound 10, 17-cyclopropylmethyl-4,5α-epoxy-3-hydroxy-14β-N-[(2’-pyridyl)carboxamido]morphinan-6-one]	–	1.51 ± 0.34	0.36 ± 0.01	94.5 ± 6.5	minimal number of wet dog shakes	dramatic increase	still lower than that of 1 mg/kg naloxone	clear decrease of escape jumps as its dose increased (not significantly though)	less severe withdrawal symptoms than naloxone at high doses	1.74 ± 0.5	19.7 ± 7.4	None of the compounds produced any significant agonist effect	–	–	–
C=CCN1CC[C@]23c4c5ccc(O)c4O[C@H]2C(=O)CC[C@@]3(O)[C@H]1C5 [Naloxone, naloxone, reference compound]	–	–	–	–	–	–	–	–	even more significant syndrome	–	–	–	0.05 (0.03-0.09) mg/kg	–	–
O=C(N[C@@]12CCC(=O)[C@@H]3Oc4c(O)ccc5c4[C@@]31CCN(CC1CC1)[C@@H]2C5)c1cc2ccccc2cn1 [Compound 14, 17-cyclopropylmethyl-4,5α-epoxy-3-hydroxy-14β-N-[(3’-isoquinolyl)carboxamido]-morphinan-6-one]	–	3.5 ± 1.87	0.27 ± 0.02	25.1 ± 1.8	–	–	–	no significant dose-response effect	behaved similarly to naltrexone	2.75 ± 0.71	14.2 ± 1.9	None of the compounds produced any significant agonist effect	–	resembled the effect of 1 mg/kg naloxone and naltrexone	dose-response increasing effect

— paper PMC4373589 (Journal of medicinal chemistry, 2013)
